The numbers were not newly measured in US6046167A, “Peptide YY analogs” (University of Cincinnati, priority 1998, dated 2000), which cites them from elsewhere.

The data set deals with rat small intestine. The following applies: voltage clamped preparations of rat small intestine; literature comparison.

Regarding “PYY: 36-residue peptide amide isolated originally from porcine intestine [Peptide YY]”, the antisecretory potency entry was “greater antisecretory potency than NPY”.
